Patent US11827644B2, “Pyrazine derivative and application thereof in inhibiting SHP2” (SUZHOU GENHOUSE PHARMACEUTICAL CO., LTD, priority 2019, dated 2023)

Biological target: SHP2 (Homo sapiens (Human), UniProt Q06124)
Experiment: SHP2 allosteric inhibition experiment (DiFMUP fluorescence)
Format: biochemical
Settings: 0.5 nM SHP2 activated with 0.5 μM peptide IRS1_pY1172(dPEG8)pY1222; substrate DiFMUP; 25° C.; read-out: IC50 values of compounds inhibiting SHP2
Description: SHP2 allosteric inhibition experiment
SHP2 is allosterically activated through the activation of a bis-tyrosyl-phosphorylated peptide and Src Homology 2 (SH2) domains. The activation steps followed result in the release of the auto-inhibition interface, which in turn activates the SHP2 protein tyrosine phosphatase (PTP) and can be used for substrate recognition and reaction catalysis. The SHP2 catalytic activity is monitored by a rapid fluorescent mode with the alternative substrate DiFMUP.
The phosphatase reaction was conducted in 384-well black polystyrene plates (Corning, Cat #3575) with flat bottom, low edge and non-binding surface at room temperature and 25 μl final volume of the following buffer condition: 60 mM HEPES, pH 7.2, 75 mM NaCl, 75 mM KCl, 1 mM EDTA, 0.05% P-20, 5 mM DTT.
The following experiments were conducted to monitor the SHP2 inhibition by the compounds (at concentrations of 0.0003-100 μM) in this invention:
Wherein, incubate 0.5 nM SHP2 with 0.5 μM peptide IRS1_pY1172 (dPEG8) pY1222 (sequence: H2N-LN (pY) IDLDLV (dPEG8) LST (pY) ASINFQK-amide) (SEQ ID NO: 1) (WO2016/203406A1). After incubation at 25° C. for 30-60 minutes, the alternative substrate DiFMUP (Invitrogen, cat #D6567) was added to the reaction and incubated at 25° C. for 30 minutes. The reaction was then carefully […] by adding 5 μL of a 160 μM bpV (Phen) solution (Enzo Life Sciences cat #ALX-270-204). The fluorescence signal was monitored using a microplate reader (VARIOSKAN LUX, Thermo) with excitation and emission wavelengths of 340 nm and 450 nm, respectively. The inhibitory dose-response curve is analyzed using a standardized IC50 regression curve based on control-based normalization.

| IC50 | Compound |
| --- | --- |
| 7.69 nM | C[C@@H]1OCC2(CCN(c3cnc(Sc4cccc(N5CCCC5=O)c4Cl)cn3)CC2)[C@@H]1N [Example 1] |
| 2.71 nM | C[C@@H]1OCC2(CCN(c3cnc(Sc4cccc(Nc5cnccn5)c4Cl)cn3)CC2)[C@@H]1N [Example 2] |
| 1.26 nM | C[C@@H]1OCC2(CCN(c3cnc(Sc4cccc(-c5ncco5)c4Cl)cn3)CC2)[C@@H]1N [Example 3] |
| 7.88 nM | C[C@@H]1OCC2(CCN(c3cnc(Sc4cccc(N5CCCC5)c4Cl)cn3)CC2)[C@@H]1N [Example 4] |
| 2.12 nM | C[C@@H]1OCC2(CCN(c3cnc(Sc4cccc(-c5ccn(C)n5)c4Cl)cn3)CC2)[C@@H]1N [Example 5] |
| 1.31 nM | C[C@@H]1OCC2(CCN(c3cnc(Sc4cccc(-c5cnccn5)c4Cl)cn3)CC2)[C@@H]1N [Example 6] |
| 41.6 nM | C[C@@H]1OCC2(CCN(c3cnc(Sc4ccnc(-c5cnccn5)c4Cl)cn3)CC2)[C@@H]1N [Example 7] |
| 5.12 nM | C[C@@H]1OCC2(CCN(c3cnc(Sc4cccc(-c5cnccn5)c4Cl)c(N)n3)CC2)[C@@H]1N [Example 8] |
| 6.61 nM | C[C@@H]1OCC2(CCN(c3cnc(Sc4cccc(-c5ncccn5)c4Cl)cn3)CC2)[C@@H]1N [Example 9] |
| 5.1 nM | C[C@@H]1OCC2(CCN(c3cnc(Sc4cccc(NC(=O)c5cccc(F)c5Cl)c4Cl)cn3)CC2)[C@@H]1N [Example 10] |
| 0.31 nM | C[C@@H]1OCC2(CCN(c3cnc(Sc4cccc(NC(=O)c5c(O)nc6n(c5=O)CCCC6)c4Cl)cn3)CC2)[C@@H]1N [Example 11] |
| 3.59 nM | C[C@@H]1OCC2(CCN(c3cnc(Sc4cccc(NC(=O)c5ccn(C)n5)c4Cl)cn3)CC2)[C@@H]1N [Example 12] |
| 5.88 nM | C[C@@H]1OCC2(CCN(c3cnc(Sc4cccc(NC(=O)c5cc(F)c(F)cc5Cl)c4Cl)cn3)CC2)[C@@H]1N [Example 13] |
| 9.24 nM | C[C@@H]1OCC2(CCN(c3cnc(Sc4cccc(-c5nc6ccccc6o5)c4Cl)cn3)CC2)[C@@H]1N [Example 14] |
| 4.06 nM | C[C@@H]1OCC2(CCN(c3cnc(Sc4cccc(-c5nc(C#N)co5)c4Cl)cn3)CC2)[C@@H]1N [Example 15] |
| 4.9 nM | Cc1ncsc1-c1cccc(Sc2cnc(N3CCC4(CC3)CO[C@@H](C)[C@H]4N)cn2)c1Cl [Example 16] |
| 4.35 nM | C[C@@H]1OCC2(CCN(c3cnc(Sc4cccc(-c5nc(C#N)cs5)c4Cl)cn3)CC2)[C@@H]1N [Example 17] |
| 7.93 nM | Cc1csc(-c2cccc(Sc3cnc(N4CCC5(CC4)CO[C@@H](C)[C@H]5N)cn3)c2Cl)n1 [Example 18] |
| 1.95 nM | C[C@@H]1OCC2(CCN(c3cnc(Sc4cccc(-c5nc(C(N)=O)co5)c4Cl)cn3)CC2)[C@@H]1N [Example 19] |
| 1.27 nM | C[C@@H]1OCC2(CCN(c3cnc(Sc4cccc(-c5nc(C(=O)O)co5)c4Cl)cn3)CC2)[C@@H]1N [Example 20] |
| 6.01 nM | C[C@@H]1OCC2(CCN(c3cnc(Sc4cccc(-c5ccc(C#N)o5)c4Cl)cn3)CC2)[C@@H]1N [Example 21] |
| 1.72 nM | C[C@@H]1OCC2(CCN(c3cnc(Sc4cccc(NC(=O)c5ccccc5C(=O)O)c4Cl)cn3)CC2)[C@@H]1N [Example 22] |

| IC50 | Compound |
| --- | --- |
| 3.28 nM | C[C@@H]1OCC2(CCN(c3cnc(Sc4cccc(-c5cnn6cccnc56)c4Cl)cn3)CC2)[C@@H]1N [Example 23] |
| 2.41 nM | Cc1coc(-c2cccc(Sc3cnc(N4CCC5(CC4)CO[C@@H](C)[C@H]5N)cn3)c2Cl)n1 [Example 24] |
| 1.74 nM | CCn1ccc(-c2cccc(Sc3cnc(N4CCC5(CC4)CO[C@@H](C)[C@H]5N)cn3)c2Cl)n1 [Example 25] |
| 6.33 nM | C[C@@H]1OCC2(CCN(c3cnc(Sc4cccc(-c5cn6ccnc6cn5)c4Cl)cn3)CC2)[C@@H]1N [Example 26] |
| 3.51 nM | C[C@@H]1OCC2(CCN(c3cnc(Sc4cccc(-c5nc(C#N)co5)c4Cl)cn3)CC2)[C@@H]1N [Example 27] |
| 9.4 nM | C[C@@H]1OCC2(CCN(c3cnc(Sc4cccc(-c5cccs5)c4Cl)cn3)CC2)[C@@H]1N [Example 28] |
| 6.62 nM | C[C@@H]1OCC2(CCN(c3cnc(Sc4cccc(-c5cnc6ccnn6c5)c4Cl)cn3)CC2)[C@@H]1N [Example 29] |
| 6.45 nM | C[C@@H]1OCC2(CCN(c3cnc(Sc4cccc(NC(=O)c5cc6n(n5)CCCC6)c4Cl)cn3)CC2)[C@@H]1N [Example 30] |
| 7.91 nM | C[C@@H]1OCC2(CCN(c3cnc(Sc4cccc(N5C(=O)C6CC6C5=O)c4Cl)cn3)CC2)[C@@H]1N (stereo partly shown) [Example 31] |
| 2.82 nM | C[C@@H]1OCC2(CCN(c3cnc(Sc4cccc(-c5ccn6nccc6n5)c4Cl)cn3)CC2)[C@@H]1N [Example 32] |
| 5.34 nM | C[C@@H]1OCC2(CCN(c3cnc(Sc4cccc(-c5nccs5)c4Cl)cn3)CC2)[C@@H]1N [Example 34] |
| 2.91 nM | C[C@@H]1OCC2(CCN(c3cnc(Sc4cccc(NC(=O)c5ncccn5)c4Cl)cn3)CC2)[C@@H]1N [Example 35] |
| 6.42 nM | C[C@@H]1OCC2(CCN(c3cnc(Sc4cccc(NC(=O)c5c(O)nc6ccccn6c5=O)c4Cl)cn3)CC2)[C@@H]1N [Example 36] |
| 9.01 nM | C[C@@H]1OCC2(CCN(c3cnc(Sc4cccc(NC(=O)c5ccccc5O)c4Cl)cn3)CC2)[C@@H]1N [Example 37] |
| 9.41 nM | C[C@@H]1OCC2(CCN(c3cnc(Sc4cccc(NC(=O)c5cc(Cl)ccc5O)c4Cl)cn3)CC2)[C@@H]1N [Example 38] |
| 8.3 nM | C[C@@H]1OCC2(CCN(c3cnc(Sc4cccc(NC(=O)c5cc6n(n5)CCC6)c4Cl)cn3)CC2)[C@@H]1N [Example 39] |
| 4.4 nM | CCn1cc(-c2cccc(Sc3cnc(N4CCC5(CC4)CO[C@@H](C)[C@H]5N)cn3)c2Cl)cn1 [Example 40] |
| 6.2 nM | C[C@@H]1OCC2(CCN(c3cnc(Sc4cccc(-c5cnc6[nH]ccc6n5)c4Cl)cn3)CC2)[C@@H]1N [Example 41] |
| 3.4 nM | C[C@@H]1OCC2(CCN(c3cnc(Sc4cccc(-c5cnn(CCO)c5)c4Cl)cn3)CC2)[C@@H]1N [Example 42] |
| 7.5 nM | C[C@@H]1OCC2(CCN(c3cnc(Sc4cccc(Nc5ncccn5)c4Cl)cn3)CC2)[C@@H]1N [Example 43] |
| 7.3 nM | C[C@@H]1OCC2(CCN(c3cnc(Sc4cccc(Nc5cnn(C)c5)c4Cl)cn3)CC2)[C@@H]1N [Example 44] |
